Experimental data from patent US6875766B2, “Use of riboflavin and flavin derivatives as chitinase inhibitors” (Bayer AG, priority 2000, dated 2005).

Key:
[1] = test system: Lucilia cuprina endochitinase; experiment: Chitinase test with soluble extracts from Lucilia cuprina puppae; type: biochemical; details: cytosolic extract of late pupae, MUF-triacetylchitotriose substrate
Protocol: Chitinase test with soluble extracts from Lucilia cuprina puppae
Test animals: Cytosol of Lucilia cuprina
The substances, which are dissolved in DMSO, are provided on 384-well microtiter plates in a concentration of 2 mM, the first four columns being empty. The substances are diluted 1:40 with 100 mM NPP pH 7.0 (50 μM). 5 μl of each of these dilutions are transferred to a 384-well test plate, starting with column 5. Into the first two columns there are pipetted in each case as negative control, into the third and fourth column in each case 5 μl of 5×10^-6 M allosamidin in 2.5% DMSO in 100 mM NPP pH 7.0 5 μl 2.5% DMSO in 100 mM NPP pH 7.0 as positive control.
The substances are incubated for 20 minutes at room temperature with 2.5 μg of cytosolic extract of late Lucilia cuprina puppae in 10 μl of 100 mM sodium phosphate buffer pH 7.0 and 10 μl of 100 μM methylumbelliferyl (MUF-triacetylchitotriose). The reaction is quenched by addition of 25 μl of 0.5 M glycine buffer 2 M sodium hydroxide, pH 10.4. The inhibition is determined by measuring the relative fluorescence at an excitation of 360±40 nm and an emission of 460±40 nm. The test substances are evaluated in comparison with the inhibition of the enzyme by allosamidin. The inhibition of the release of MUF is a measure for the efficacy of the inhibitor. In subsequent tests, concentration series in the range of from 100 nM to 200 μM are tested, and the release of MUF is measured every 2 minutes before the reaction is quenched.
Compounds which lead to more than 50% inhibition of chitinase at maximum reaction velocity at 100 μM are assessed as effective.

[2] = test system: Streptomyces griseus chitinase (Sigma); experiment: Chitinase inhibitory activity against Streptomyces griseus chitinase; type: biochemical; details: at 100 μM (37° C.)
Protocol: (§1) The chitinase inhibitory activity was determined as already described [Omura, S., Arai, N., Yamaguchi, Y., Masuma, R., Iwai, Y., Namikoshi, M., Turberg, A., Kölbl, H., Shiomi, K., J. Antibiot., 53, 603-608 (2000)].

[3] = target: Lucilia cuprina chitinase; experiment: Chitinase inhibitory activity (IC50) against Lucilia cuprina chitinase; type: biochemical
Protocol: as §1

[4] = test system: Vibrio alginolyticus chitinase (Kyowa Medex); experiment: Chitinase inhibitory activity against Vibrio alginolyticus chitinase; type: biochemical; details: at 100 μM (37° C.)
Protocol: as §1

[5] = test system: Periplaneta americana, third instar; experiment: Injection test with Periplaneta larvae; type: in vivo; details: 2 μg injected per larva; observed over 23 days
Protocol: Injection test with Periplaneta larvae
Test animals: Periplaneta americana, third instar
The compounds are prepared in aqueous solution (0.1 N acetic acid) and diluted as required. Using a 10 μl Hamilton syringe, 1 μl of the 20 or 2 μg were injected behind the 3rd pair of legs closely underneath the abdominal cavity of the cockroach larvae. Solvent (0.1 N acetic acid) was applied as control and 10 μg allosamidine as positive control. Batches of twenty cockroach larvae were treated per concentration and compound. On day 1, the control mortality and the initial mortality caused essentially by artificial effects during the injection were determined. If this initial mortality was less than 50%, the experiment was continued. The cockroach larvae were placed on filter paper in standard Petri dishes (9.5 cm Ø), and a quarter of a wafer was added. The ecdysis rate of the control animals and of the treated cockroach larvae was observed over a period of 23 days, and larval mortality and inhibition of ecdysis were recorded after days 1, 5 and 23. The efficacy is calculated using the following formula. [formula]

Cc1cc2nc3c(=O)[nH]c(=O)nc-3n(C[C@H](O)[C@H](O)[C@H](O)CO)c2cc1C [compound 1, riboflavin]
inhibition of the Lucilia cuprina endochitinase ([1]; 10 μM): >>50%
inhibition of the Lucilia cuprina endochitinase ([1]; 100 μM): >>50%
inhibition of the Lucilia cuprina endochitinase ([1]; 200 μM): >>>50%
inhibition of the Streptomyces griseus chitinase [2]: no inhibition
IC50 ([3]; 20° C.): 0.38 µM
IC50 ([3]; 37° C.): 2.1 µM
inhibition of the Vibrio alginolyticus chitinase [4]: no inhibition
mortality against Periplaneta americana third instars [5]: More than 50%
